Four molecules from patent US12721905B2, “Combination of anti-HER2 antibody-drug conjugate and PARP1 selective inhibitor” (AstraZeneca UK Limited, priority 2020, dated 2026) can be followed below.

For assay [1], the system named is BRCA2 (−/−) DLD1 cells. In words: PARP proliferation assay (4 day compound dosing), BRCA2 (-/-) DLD1. Type of assay: cell-based. Conditions: Homo sapiens, DLD-1, 96 h, read-out: BRCA2 −/− DLD-1 prolif 4 d IC50.
Assay [2] relates to DLD1 cells. The assay can be described thus: PARP proliferation assay (4 day compound dosing), WT DLD1. Type of assay: cell-based. Conditions: Homo sapiens, DLD-1, 96 h, read-out: WT DLD-1 prolif 4 d IC50.
Assay [3] addresses T1, Recombinant full length PARP2 protein (Homo sapiens, UniProt Q9UGN5).
T1 construct: Recombinant full length PARP2 protein
The assay can be described thus: PARP fluorescence anisotropy binding assay, PARP2. In general terms: In fluorescence polarisation assays a small probe gives low polarisation when free and higher when bound to something large.

Assay [4] concerns NCI-N87 xenograft. The assay can be described thus: Antitumor test in vivo, NCI-N87 xenograft (Example 5). Also on record: species or system Female Nude mice. To be noted: AZD5305 1 mg/kg PO QD for 28 days.
Assay [5] relates to 5637. In words: High-throughput combination screen, 7-day CellTiter-Glo cell viability (Example 6), 5637. Type of assay: cell-based. Conditions: AZD5305 as single agent, HER2 mutant cell line 5637. As for the experimental part: Combination activity was assessed based on a combination of the ΔEmax and Loewe synergy scores.
FIGS. 18A and 19A show matrices of measured cell viability signals. […] Values in the box represent the ratio of cells treated with drug A+B compared to DMSO control at day 7. All values are normalised to cell viability values at day 0. Values between 0 and 100 represent % growth inhibition and values above 100 represent cell death.
FIGS. 18B and 19B show Loewe excess matrices. Values in the box represent excess values calculated by the Loewe additivity model.
FIGS. 18C and 19C show HSA excess matrices. Values in the box represent excess values calculated by the HSA (Highest Single Agent) model.
(In ATP-based viability assays light output follows the ATP content of the culture.)

T1 sequence (Q9UGN5 whole entry): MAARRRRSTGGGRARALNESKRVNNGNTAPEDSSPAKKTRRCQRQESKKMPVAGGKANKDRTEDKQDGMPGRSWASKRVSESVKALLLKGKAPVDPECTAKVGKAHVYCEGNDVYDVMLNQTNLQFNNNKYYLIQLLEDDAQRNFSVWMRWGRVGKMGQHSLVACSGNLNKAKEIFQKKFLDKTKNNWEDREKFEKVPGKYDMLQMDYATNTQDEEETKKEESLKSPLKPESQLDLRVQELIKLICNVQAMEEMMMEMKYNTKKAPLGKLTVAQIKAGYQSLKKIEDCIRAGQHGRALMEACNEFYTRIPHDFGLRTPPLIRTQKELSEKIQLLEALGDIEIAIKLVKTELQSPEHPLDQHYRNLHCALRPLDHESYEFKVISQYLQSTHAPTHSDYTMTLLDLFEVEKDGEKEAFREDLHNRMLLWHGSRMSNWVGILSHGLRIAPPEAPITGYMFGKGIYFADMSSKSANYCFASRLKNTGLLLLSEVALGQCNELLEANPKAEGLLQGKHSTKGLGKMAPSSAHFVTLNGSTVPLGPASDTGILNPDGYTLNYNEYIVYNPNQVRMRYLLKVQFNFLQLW

Regarding `CCc1cc2ncc(CN3CCN(c4ccc(C(=O)NC)nc4)CC3)cc2[nH]c1=O` [Example 4], the IC50 in assay [1] was greater than 17 nM. Take `CCc1cc2ncc(CN3CCN(c4ccc(C(=O)NC)nc4C(F)(F)F)CC3)cc2[nH]c1=O` [Example 30]: the IC50 is 4 nM in assay [1] and greater than 30000 nM in assay [2]. For `CCc1cc2ncc(CN3CCN(c4ccc(C(=O)NC)nc4C)CC3)cc2[nH]c1=O` [Example 31], the IC50 in assay [3] is 3000 nM.

For `CCc1cc2ncc(CN3CCN(c4ccc(C(=O)NC)nc4)CC3)cc2[nH]c1=O` [Synthesis Example 4, 5-[4-[(7-ethyl-6-oxo-5H-1,5-naphthyridin-3-yl)methyl]piperazin-1-yl]-N-methyl-pyridine-2-carboxamide], the “TGI % day 41” value in assay [4] is 40%. The single agent activity entry in assay [5] is “not active”.
